Our source for the IC50 values is patent US11691971B2, “Naphthyridinone compounds as JAK2 V617F inhibitors” (Incyte Corporation, priority 2020, dated 2023).

As usually defined, the IC50 is the concentration at which inhibition is half-maximal.

Test [1] concerns the target catalytic domain (JH1, amino acids 808-1132) of human JAK2 (Homo sapiens (Human), UniProt O60674). Briefly: JAK2 HTRF Enzyme Activity Assay. The format is biochemical. The note with it: ATP 30 μM, 60 minutes at 25° C.; read-out: ENZ 30UMATP IC50. As to the method:
Example D. JAK2 HTRF Enzyme Activity Assay
JAK2 enzyme activity assays utilize catalytic domain (JH1, amino acids 808-1132) of human JAK2 expressed as N-terminal His-tagged protein in a baculovirus expression system (BPS Bioscience, Catalog #40450). The assays was conducted in black 384-well polystyrene plates in a final reaction volume of 20 μL. JAK2 (0.015 nM) was incubated with compounds (100 nL serially diluted in DMSO) in the presence of ATP (30 μM or 1 mM) and 500 nM Biotin-labeled […] (SEQ ID NO.: 1) peptide (BioSource International, custom synthesis) in assay buffer (50 mM Tris, pH=7.5, 10 mM MgCl2, 0.01% Brij-35, 0.1% BSA, 1 mM EGTA, 5% Glycerol and 5 mM DTT) for 60 minutes at 25° C. The reactions were stopped by the addition of 10 μL of detection buffer (50 mM Tris, pH 7.8, 0.5 mg/mL BSA, 150 mM NaCl), supplemented with EDTA, LANCE Eu-W1024 anti-phosphotyrosine (PY20), (PerkinElmer, Catalog #AD0067) and Streptavidin SureLight APC (PerkinElmer Catalog #CR130-100), for a final concentration of 15 mM, 1.5 nM and 75 nM, respectively. HTRF signals were read after 30 minutes incubation at room temperature on a PHERAstar FS plate reader (BMG LABTECH). Data was analyzed with IDBS XLfit and GraphPad Prism 5.0 software using a four parameter dose response curve to determine IC50 for each compound.
In general terms: In TR-FRET formats the signal depends on donor and acceptor labels being close together.

The target of test [2] is pseudo-kinase domain (JH2) of human V617F mutant JAK2 (Homo sapiens (Human), UniProt O60674, F794H/V617F/W659A/W777A). Put plainly: JAK2 LanthaScreen JH2-V617F Binding Assay. The note with it: JAK2 JH2-V617F 0.26 nM, 50 nM tracer, 1 hour at 25° C.; read-out: JH2BINDING_V617F IC50. As for the experimental part:
The assay was conducted in black 384-well polystyrene plates in a final reaction volume of 20 μL. […] Non-specific binding was accessed in the presence of 2 mM ATP. After incubation for 1 hour at 25° C., LanthaScreen signals were read on a PHERAstar FS plate reader (BMG LABTECH). Data was analyzed with IDBS XLfit and GraphPad Prism 5.0 software using a four parameter dose response curve to determine IC50 for each compound.

The target in test [3] is catalytic domain (JH1, amino acids 826-1132) of human JAK2 (Homo sapiens (Human), UniProt O60674). Briefly: JAK2 LanthaScreen JH1 Binding Assay. The settings on record: JAK2 JH1 1.5 nM, 50 nM tracer, 2 hours at 25° C.; read-out: JH1BIND IC50. As for the experimental part: Example A. JAK2 LanthaScreen JH1 Binding Assay
catalytic domain (JH1, amino acids 826-1132) of human JAK2, sequence (O60674 826-1132): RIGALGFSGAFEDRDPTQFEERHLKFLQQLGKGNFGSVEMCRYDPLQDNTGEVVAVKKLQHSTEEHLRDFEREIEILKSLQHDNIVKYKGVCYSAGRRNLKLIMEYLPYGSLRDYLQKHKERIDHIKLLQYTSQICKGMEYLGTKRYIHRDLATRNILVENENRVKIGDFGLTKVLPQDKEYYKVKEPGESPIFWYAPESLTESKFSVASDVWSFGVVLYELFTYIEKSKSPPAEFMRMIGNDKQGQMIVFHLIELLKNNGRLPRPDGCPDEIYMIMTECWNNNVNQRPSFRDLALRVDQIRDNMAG
(§1) JAK2 JH1 binding assay utilizes catalytic domain (JH1, amino acids 826-1132) of human JAK2 expressed as N-terminal FLAG-tagged, biotinylated protein in a baculovirus expression system (Carna Biosciences, Product #08-445-20N). The assay was conducted in black 384-well polystyrene plates in a final reaction volume of 20 μL. JAK2 JH1 (1.5 nM) was incubated with compounds (100 nL serially diluted in DMSO) in the presence of 50 nM fluorescent JAK2-JH1 tracer and 0.5 nM Streptavidin-Tb cryptate (Cisbio Part #610SATLB) in assay buffer (50 mM Tris, pH=7.5, 10 mM MgCl2, 0.01% Brij-35, 0.1% BSA, 1 mM EGTA, 5% Glycerol and 5 mM DTT). Non-specific binding was accessed in the presence of 2 mM ATP. After incubation for 2 hours at 25° C., LanthaScreen signals were read on a PHERAstar FS plate reader (BMG LABTECH). Data was analyzed with IDBS XLfit and GraphPad Prism 5.0 software using a four parameter dose response curve to determine IC50 for each compound.

The target in test [4] is pseudo-kinase domain (JH2) of human Wild Type JAK2 (Homo sapiens (Human), UniProt O60674, F794H/W659A/W777A). Briefly: JAK2 LanthaScreen JH2-WT Binding Assay. The settings on record: JAK2 JH2-WT 0.145 nM, 50 nM tracer, 1 hour at 25° C.; read-out: JH2BIND_WT IC50. As for the experimental part:
Example B. JAK2 LanthaScreen JH2-WT Binding Assay
as §1, with “The” for “JAK2 JH1 binding assay utilizes catalytic domain (JH1, amino acids 826-1132) of human JAK2 expressed as N-terminal FLAG-tagged, biotinylated protein in a baculovirus expression system (Carna Biosciences, Product #08-445-20N). The”, “JH2-WT (0.145” for “JH1 (1.5”, “Fluorescent JAK2-JH2 Tracer (MedChem Express Catalog #HY-102055)” for “fluorescent JAK2-JH1 tracer”, “0.25” for “0.5”, “1 hour” for “2 hours”

Where a name gives a salt, the structure may show the parent alone.

catalytic domain (JH1, amino acids 808-1132) of human JAK2, sequence (O60674 808-1132): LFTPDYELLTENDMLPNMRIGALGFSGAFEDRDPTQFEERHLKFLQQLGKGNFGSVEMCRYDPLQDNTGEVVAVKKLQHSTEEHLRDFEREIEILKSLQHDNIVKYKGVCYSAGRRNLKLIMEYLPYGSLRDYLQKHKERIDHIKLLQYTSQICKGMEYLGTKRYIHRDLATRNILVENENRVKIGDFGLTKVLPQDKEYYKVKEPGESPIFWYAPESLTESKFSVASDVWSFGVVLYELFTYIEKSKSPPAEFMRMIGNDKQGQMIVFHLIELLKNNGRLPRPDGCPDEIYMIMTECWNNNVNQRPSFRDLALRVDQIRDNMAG
pseudo-kinase domain (JH2) of human V617F mutant JAK2, sequence (O60674 536-812 V617F/W659A/W777A/F794H): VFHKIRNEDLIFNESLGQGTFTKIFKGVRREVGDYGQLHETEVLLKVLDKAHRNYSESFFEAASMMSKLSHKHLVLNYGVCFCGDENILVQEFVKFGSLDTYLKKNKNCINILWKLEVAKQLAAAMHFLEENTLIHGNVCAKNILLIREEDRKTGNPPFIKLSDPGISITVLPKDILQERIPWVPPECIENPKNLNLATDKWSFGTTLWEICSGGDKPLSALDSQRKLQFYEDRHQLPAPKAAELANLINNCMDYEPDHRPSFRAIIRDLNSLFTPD
pseudo-kinase domain (JH2) of human Wild Type JAK2, sequence (O60674 536-812 W659A/W777A/F794H): as the sequence (O60674 536-812 V617F/W659A/W777A/F794H) above, with F82V counted along it

With `COc1c(Nc2cc(NC(=O)C3CC3)nc3cc[nH]c(=O)c23)cccc1N1CCN(S(=O)(=O)C2CC2)CC1` [Example 4, N-(4-((3-(4-(Cyclopropylsulfonyl)piperazin-1-yl)-2-methoxyphenyl)amino)-5-oxo-5,6-dihydro-1,6-naphthyridin-2-yl)cyclopropanecarboxamide Trifluoroacetic Acid Salt], the IC50 is above 10 µM in test [1], 0.1 to 0.5 µM in test [2], 1 to 10 µM in test [3] and 0.1 to 0.5 µM in test [4].
Consider `COc1c(Nc2cc(NC(=O)C3CC3)nc3cc[nH]c(=O)c23)cccc1-c1cnn(C2CCOCC2)c1` [Example 5, N-(4-((2-Methoxy-3-(1-(tetrahydro-2H-pyran-4-yl)-1H-pyrazol-4-yl)phenyl)amino)-5-oxo-5,6-dihydro-1,6-naphthyridin-2-yl)cyclopropanecarboxamide Trifluoroacetic Acid Salt], for which the IC50 in test [1] was above 10 µM; in test [2], at most 0.1 µM; in test [3], above 10 µM; in test [4] it was at most 0.1 µM.
Turning to `Cc1[nH]ncc1-c1c(Cl)cccc1Nc1cc(NC(=O)C2CC2)nc2cc[nH]c(=O)c12` [Example 17, N-(4-((3-Chloro-2-(5-methyl-1H-pyrazol-4-yl)phenyl)amino)-5-oxo-5,6-dihydro-1,6-naphthyridin-2-yl)cyclopropanecarboxamide Trifluoroacetic Acid Salt], the IC50 is 1 to 10 µM in test [1], 1 to 10 µM in test [2], 1 to 10 µM in test [3] and 0.5 to 1 µM in test [4].
As for `COc1cc(-c2cnn(C3CCOCC3)c2)ccc1Nc1cc(NC(=O)C2CC2)nc2cc[nH]c(=O)c12` [Example 7, N-(4-((2-Methoxy-4-(1-(tetrahydro-2H-pyran-4-yl)-1H-pyrazol-4-yl)phenyl)amino)-5-oxo-5,6-dihydro-1,6-naphthyridin-2-yl)cyclopropanecarboxamide Trifluoroacetic Acid Salt], the IC50 in test [1] is 1 to 10 µM; in test [2], above 10 µM; in test [3], 1 to 10 µM; in test [4] it was 1 to 10 µM.
Take `CSc1c(Nc2cc(NC(=O)C3CC3)nc3cc[nH]c(=O)c23)cccc1-c1cnn(C2CCOCC2)c1` [Example 12, N-(4-((2-(Methylthio)-3-(1-(tetrahydro-2H-pyran-4-yl)-1H-pyrazol-4-yl)phenyl)amino)-5-oxo-5,6-dihydro-1,6-naphthyridin-2-yl)cyclopropanecarboxamide Trifluoroacetic Acid Salt]: the IC50 in test [1] is above 10 µM; in test [2] it was 0.5 to 1 µM; in test [3], above 10 µM; in test [4], 0.5 to 1 µM.
In the case of `O=C(Nc1cc(Nc2ccccc2CO)c2c(=O)[nH]ccc2n1)C1CC1` [Example 23, N-(4-((2-(Hydroxymethyl)phenyl)amino)-5-oxo-5,6-dihydro-1,6-naphthyridin-2-yl)cyclopropanecarboxamide Trifluoroacetic Acid Salt], the IC50 in test [1] is 1 to 10 µM; in test [2], above 10 µM; in test [3], 1 to 10 µM; in test [4], 1 to 10 µM.
Take `CS(=O)(=O)c1c(Nc2cc(NC(=O)C3CC3)nc3cc[nH]c(=O)c23)cccc1-c1cnn(C2CCOCC2)c1` [Example 13, N-(4-((2-(Methylsulfonyl)-3-(1-(tetrahydro-2H-pyran-4-yl)-1H-pyrazol-4-yl)phenyl)amino)-5-oxo-5,6-dihydro-1,6-naphthyridin-2-yl)cyclopropanecarboxamide Trifluoroacetic Acid Salt]: the IC50 in test [1] is above 10 µM; in test [2] it was 1 to 10 µM; in test [3] it was above 10 µM; in test [4], 1 to 10 µM.
Consider `Cc1[nH]ncc1-c1c(Nc2cc(NC(=O)C3CC3)nc3cc[nH]c(=O)c23)cccc1C(F)(F)F` [Example 19, N-(4-((2-(5-Methyl-1H-pyrazol-4-yl)-3-(trifluoromethyl)phenyl)amino)-5-oxo-5,6-dihydro-1,6-naphthyridin-2-yl)cyclopropanecarboxamide Trifluoroacetic Acid Salt], for which the IC50 in test [1] was above 10 µM; in test [2], 1 to 10 µM; in test [3], above 10 µM; in test [4] it was 1 to 10 µM.
`COc1c(Nc2cc(NC(=O)C3CC3)nc3cc[nH]c(=O)c23)cccc1C(=O)NCC1CCOCC1` [Example 11, 3-((2-(Cyclopropanecarboxamido)-5-oxo-5,6-dihydro-1,6-naphthyridin-4-yl)amino)-2-methoxy-N-((tetrahydro-2H-pyran-4-yl)methyl)benzamide Trifluoroacetic Acid Salt]: the IC50 was above 10 µM in test [1], 1 to 10 µM in test [2], above 10 µM in test [3] and 1 to 10 µM in test [4].
In the case of `COc1ccccc1Nc1cc(NC(=O)C2CC2)nc2cc[nH]c(=O)c12` [Example 21, N-(4-((2-Methoxyphenyl)amino)-5-oxo-5,6-dihydro-1,6-naphthyridin-2-yl)cyclopropanecarboxamide], the IC50 is 1 to 10 µM in test [1], above 10 µM in test [2], 1 to 10 µM in test [3] and 1 to 10 µM in test [4].
